Reference: the NIST ThermoML archive (doi:10.1016/j.fluid.2013.02.008)
Numbers after ± are expanded uncertainties.

Assay: activity coefficient (dimensionless); of the first substance listed, at infinite dilution; xn = mol fraction of the nth substance listed
Details: Liquid, Chromatography, x1 = 0

**Q.** With `CCCCCCCC` [octane] + CCCCCCCCCCCCO as the compound, how does the activity coefficient (353.3 K, 101 kPa) read?
**A.** The activity coefficient was 2.29 ± 0.16.

**Q.** What about the activity coefficient (362.6 K, 101 kPa) of the same compound?
**A.** The activity coefficient was 2.21 ± 0.15.

**Q.** What about the activity coefficient (372.4 K, 101 kPa) of the same compound?
**A.** The activity coefficient was 2.16 ± 0.15.

**Q.** What about the activity coefficient (383 K, 101 kPa) of the same compound?
**A.** The activity coefficient was 2.08 ± 0.14.

**Q.** What about the activity coefficient (411.1 K, 101 kPa) of the same compound?
**A.** The activity coefficient was 1.9 ± 0.13.

**Q.** What about the activity coefficient (430.6 K, 101 kPa) of the same compound?
**A.** The activity coefficient was 1.76 ± 0.12.

**Q.** With `CCCCCCCCCC` [decane] + CCCCCCCCCCCCCCO as the compound, how does the activity coefficient (353 K, 101 kPa) read?
**A.** Its activity coefficient is 2.1 ± 0.14.

**Q.** And the activity coefficient (372.4 K, 101 kPa)?
**A.** The activity coefficient was 1.9 ± 0.13.

**Q.** What about the activity coefficient (392 K, 101 kPa) of the same compound?
**A.** The activity coefficient was 1.79 ± 0.12.

**Q.** What about the activity coefficient (430.3 K, 101 kPa) of the same compound?
**A.** The activity coefficient was 1.68 ± 0.11.

**Q.** With `CCCCCC` [hexane] + OCCCO as the compound, how does the activity coefficient (312.1 K, 101 kPa) read?
**A.** The activity coefficient was 77.2 ± 5.3.

**Q.** What about the activity coefficient (333.1 K, 101 kPa) of the same compound?
**A.** The activity coefficient was 72.9 ± 5.

**Q.** And the activity coefficient (352.1 K, 101 kPa)?
**A.** Its activity coefficient is 52.4 ± 3.6.

**Q.** For `CCCCCCCC` [octane] + OCCCO, which activity coefficient (312.1 K, 101 kPa) is on record?
**A.** The activity coefficient was 314 ± 22.

**Q.** What about the activity coefficient (333.1 K, 101 kPa) of the same compound?
**A.** The activity coefficient was 283 ± 19.

**Q.** What about the activity coefficient (352.1 K, 101 kPa) of the same compound?
**A.** The activity coefficient was 224 ± 15.

**Q.** And the activity coefficient (372.1 K, 101 kPa)?
**A.** Its activity coefficient is 187 ± 13.

**Q.** And the activity coefficient (391.1 K, 101 kPa)?
**A.** The activity coefficient was 148 ± 10.

**Q.** With `CCCCCCCC` [octane] + CCCCCCCCCCO as the compound, how does the activity coefficient (352.7 K, 101 kPa) read?
**A.** The activity coefficient was 2.44 ± 0.17.

**Q.** What about the activity coefficient (372.2 K, 101 kPa) of the same compound?
**A.** Its activity coefficient is 2.28 ± 0.16.

**Q.** And the activity coefficient (391.8 K, 101 kPa)?
**A.** The activity coefficient was 2.15 ± 0.15.

**Q.** Which activity coefficient (359.5 K, 101 kPa) does the source give for `CCCCCCCCCC` [decane] + OCCO here?
**A.** The activity coefficient was 1680 ± 120.

**Q.** What about the activity coefficient (373.1 K, 101 kPa) of the same compound?
**A.** The activity coefficient was 1210 ± 84.

**Q.** What about the activity coefficient (392.4 K, 101 kPa) of the same compound?
**A.** Its activity coefficient is 804 ± 55.

**Q.** And the activity coefficient (411.5 K, 101 kPa)?
**A.** The activity coefficient was 557 ± 38.

**Q.** What about the activity coefficient (431 K, 101 kPa) of the same compound?
**A.** The activity coefficient was 454 ± 31.

**Q.** Which results are given for `CCCCCCCC` [octane] + CCCCCCCCCCCCCCO?
**A.** activity coefficient (353 K, 101 kPa): 1.87 ± 0.08; activity coefficient (372.4 K, 101 kPa): 1.76 ± 0.07; activity coefficient (391.9 K, 101 kPa): 1.69 ± 0.07; activity coefficient (410.6 K, 101 kPa): 1.63 ± 0.07; activity coefficient (430.6 K, 101 kPa): 1.61 ± 0.06

**Q.** With `CCCCCC` [hexane] + CCCCCCCCCCO as the compound, how does the activity coefficient (312.6 K, 101 kPa) read?
**A.** The activity coefficient was 2.21 ± 0.15.

**Q.** What about the activity coefficient (331.7 K, 101 kPa) of the same compound?
**A.** Its activity coefficient is 2.14 ± 0.15.

**Q.** What about the activity coefficient (352.9 K, 101 kPa) of the same compound?
**A.** The activity coefficient was 2.02 ± 0.14.

**Q.** Which activity coefficient (331.8 K, 101 kPa) does the source give for `CCCCCC` [hexane] + CCCCCCCCCCCCCCO here?
**A.** The activity coefficient was 1.69 ± 0.11.

**Q.** And the activity coefficient (353 K, 101 kPa)?
**A.** Its activity coefficient is 1.6 ± 0.11.

**Q.** Which results are given for `CCCCCCCCCC` [decane] + CCCCCCCCCCCCO?
**A.** activity coefficient (352.7 K, 101 kPa): 3.46 ± 0.24; activity coefficient (362.5 K, 101 kPa): 2.93 ± 0.2; activity coefficient (372.8 K, 101 kPa): 2.67 ± 0.18; activity coefficient (382.9 K, 101 kPa): 2.42 ± 0.16; activity coefficient (392 K, 101 kPa): 2.31 ± 0.16; activity coefficient (410.9 K, 101 kPa): 2.31 ± 0.16; activity coefficient (430.6 K, 101 kPa): 2.18 ± 0.15

**Q.** For `CCCCCCCCCC` [decane] + CCCCCCCCCCO, which activity coefficient (352.8 K, 101 kPa) is on record?
**A.** The activity coefficient was 2.98 ± 0.2.

**Q.** And the activity coefficient (372.2 K, 101 kPa)?
**A.** Its activity coefficient is 2.73 ± 0.19.

**Q.** And the activity coefficient (391.6 K, 101 kPa)?
**A.** The activity coefficient was 2.6 ± 0.18.

**Q.** Which results are given for `CCCCCCCC` [octane] + OCCO?
**A.** activity coefficient (332.1 K): 631 ± 43; activity coefficient (353.6 K): 447 ± 31; activity coefficient (372.7 K): 383 ± 26; activity coefficient (392.4 K): 313 ± 22

**Q.** Which activity coefficient (313.2 K, 101 kPa) does the source give for `CCCCCC` [hexane] + OCCO here?
**A.** Its activity coefficient is 97.8 ± 6.7.

**Q.** And the activity coefficient (332.1 K, 101 kPa)?
**A.** Its activity coefficient is 88.1 ± 6.

**Q.** And the activity coefficient (353.5 K, 101 kPa)?
**A.** The activity coefficient was 80.6 ± 5.5.

**Q.** For `CCCCCC` [hexane] + CCCCCCCCCCCCO, which activity coefficient (312.7 K, 101 kPa) is on record?
**A.** The activity coefficient was 2.03 ± 0.14.

**Q.** And the activity coefficient (332.1 K, 101 kPa)?
**A.** The activity coefficient was 1.98 ± 0.13.

**Q.** And the activity coefficient (353.2 K, 101 kPa)?
**A.** Its activity coefficient is 1.86 ± 0.13.

**Q.** For `CCCCCCCCCC` [decane] + OCCCO, which activity coefficient (312.1 K, 101 kPa) is on record?
**A.** Its activity coefficient is 793 ± 55.

**Q.** What about the activity coefficient (333.1 K, 101 kPa) of the same compound?
**A.** Its activity coefficient is 589 ± 41.

**Q.** And the activity coefficient (352.1 K, 101 kPa)?
**A.** The activity coefficient was 501 ± 34.

**Q.** And the activity coefficient (372.1 K, 101 kPa)?
**A.** Its activity coefficient is 464 ± 32.

**Q.** What about the activity coefficient (391.1 K, 101 kPa) of the same compound?
**A.** Its activity coefficient is 338 ± 23.

**Q.** And the activity coefficient (411.1 K, 101 kPa)?
**A.** Its activity coefficient is 256 ± 18.
